# Legend:
# Test in all cases: selective drug sensitivity score (sDSS, relative to normal bone marrow) (sDSS (score)); higher = more potent and effective on the cell line relative to normal bone marrow cells
# Details in all cases: 72 h
# [1] = system: SEM cells
# [2] = system: KARPAS-45
# [3] = system: PF-382
# 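Also: ALL cell lines in 384-well plates, five doses spanning 10,000-fold, each plate scaled between vehicle and 100 µmol/L benzalkonium chloride controls, sDSS an adapted area-under-curve metric.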
Compound,selective drug sensitivity score [1],selective drug sensitivity score [2],selective drug sensitivity score [3]
COC12C(COC(N)=O)C3=C(C(=O)C(C)=C(N)C3=O)N1CC1NC12 (stereo in doubt) [Mitomycin_C] (top concentration 10000 nM),3.84,-2.86,-2.86
Cc1c(-c2c(-c3ccc(F)o3)sc3ncnc(O[C@H](Cc4ccccc4OCc4ccnn4CC(F)(F)F)C(=O)O)c23)ccc(OCCN2CCN(C)CC2)c1Cl (top concentration 1000 nM),-6.44,-0.24,-7.74
Cc1ncc(Cl)cc1NCc1ccc(C(=O)N[C@@H](CC2CCCC2)C(=O)NC2CC2)s1 (top concentration 5000 nM),-0.94,-0.94,-0.94
CCn1c(-c2nonc2N)nc2c(C#CC(C)(C)O)ncc(OC[C@H]3CCCNC3)c21 (top concentration 10000 nM),5.28,6.28,4.48
CN(c1ncccc1CNc1nc(Nc2ccc3c(c2)CC(=O)N3)ncc1C(F)(F)F)S(C)(=O)=O (top concentration 10000 nM),7.22,2.72,-0.78
CNc1ncc2cc(-c3cc(NC(=O)NCCC(C)(C)C)c(F)cc3C)c(C)nc2n1 (top concentration 10000 nM),5.66,5.26,9.66
C[C@@]1(C(=O)Nc2ccc(F)nc2)CCCN1c1nc(Nc2cc(C3CC3)n[nH]2)c2cccn2n1 (top concentration 10000 nM),8.98,6.18,6.18
Cc1nc(Nc2n[nH]c3c2CN(C(=O)N[C@H](CN(C)C)c2ccccc2)C3(C)C)c2sccc2n1 (top concentration 10000 nM),2.28,9.48,1.98
Cn1cc(-c2[nH]c3cc(NC(=O)[C@H](N)C4CCCCC4)cc4c3c2C=NNC4=O)cn1 (top concentration 10000 nM),7.28,6.78,4.48
Cn1cc(-c2ccc(F)c(C(F)(F)F)c2)nc1C1CCN(c2ncnc3[nH]ncc23)CC1 (top concentration 10000 nM),-0.14,0.06,-0.14
O=C(Nc1ccc2[nH]nc(-c3ccncc3)c2c1)[C@@H]1CCN(CC(=O)N2CCN(c3ccc(-c4ncccn4)cc3)CC2)C1 (top concentration 10000 nM),-2.64,-0.84,0.56
CC(C)(C)c1cc(NC(=O)Nc2ccc(Oc3ccnc4[nH]c(=O)cnc34)cc2F)n(-c2ccccc2)n1 (top concentration 25000 nM),11.4,-1.48,-3.88
Nc1ncnc2c1nc(N)n2[C@@H]1O[C@H](CO)[C@@H](O)[C@H]1O [8-amino-adenosine] (top concentration 50000 nM),5.08,-3.32,0.18
CC(C)[C@@H](CS(=O)(=O)C(C)C)N1C(=O)[C@@](C)(CC(=O)O)C[C@H](c2cccc(Cl)c2)[C@H]1c1ccc(Cl)cc1 [AMG-232] (top concentration 10000 nM),-8.34,-8.34,-8.94
CC(C)[C@H](C(=O)Nc1ccc(C(=O)NO)cc1)c1ccccc1 [AR-42] (top concentration 10000 nM),9.08,10.8,5.78
O=C(Nc1c[nH]nc1-c1nc2ccc(CN3CCOCC3)cc2[nH]1)NC1CC1 [AT9283] (top concentration 1000 nM),14.7,9.22,7.72
CCN(CCO)CCCOc1ccc2c(Nc3cc(CC(=O)Nc4cccc(F)c4)[nH]n3)ncnc2c1 [AZD1152-HQPA] (top concentration 1000 nM),15.7,24.7,9.94
Cc1[nH]nc(C(F)(F)F)c1Cc1sc2c(c1C(=O)N1C[C@](C)(O)CO1)c(=O)n(C)c(=O)n2C(C)C [AZD3965] (top concentration 1000 nM),0,0,1.7
C[C@@H]1COCCN1c1cc(C2([S@](C)(=N)=O)CC2)nc(-c2cc[nH]c3nccc2-3)n1 [AZD6738] (top concentration 25000 nM),17.2,8.28,4.68
NC1(C(=O)N[C@@H](CCO)c2ccc(Cl)cc2)CCN(c2ncnc3[nH]ccc23)CC1 [AZD-5363] (top concentration 10000 nM),4.82,5.82,4.42
C[C@@H](Nc1cc(F)cc(F)c1)c1cc(C(=O)N(C)C)cc2c(=O)cc(N3CCOCC3)oc12 [AZD-8186] (top concentration 1000 nM),2.44,2.14,0.54

Compound,selective drug sensitivity score [1],selective drug sensitivity score [2],selective drug sensitivity score [3]
COc1cccc2c1C(=O)c1c(O)c3c(c(O)c1C2=O)C[C@@](O)(/C(CO)=N/NC(=O)CCCCCN1C(=O)C=CC1=O)C[C@@H]3O[C@H]1C[C@H](N)[C@H](O)[C@H](C)O1 [Aldoxorubicin] (top concentration 1000 nM),3.64,0.94,3.24
COc1cc(Nc2ncc3c(n2)-c2ccc(Cl)cc2C(c2c(F)cccc2OC)=NC3)ccc1C(=O)O [Alisertib] (top concentration 10000 nM),26.8,27.9,14.3
Cc1nc(NC(=O)N2CCC[C@H]2C(N)=O)sc1-c1ccnc(C(C)(C)C(F)(F)F)c1 [Alpelisib] (top concentration 2500 nM),-0.82,0.38,0.48
CCN(CC)CCNC(=O)c1c(C)[nH]c(/C=C2\C(=O)Nc3ccc(-c4csc(-c5ccccc5)n4)cc32)c1C [Amcasertib] (top concentration 10000 nM),3,6.4,2.7
COc1c(C)cnc(Cn2cnc3c(Cl)nc(N)nc32)c1C [BIIB021] (top concentration 10000 nM),7.38,8.88,5.78
O=C(/C=C/c1cccc(S(=O)(=O)Nc2ccccc2)c1)NO [Belinostat] (top concentration 10000 nM),7.6,14.8,8.4
Nc1cc(C(F)(F)F)c(-c2cc(N3CCOCC3)nc(N3CCOCC3)n2)cn1 [Buparlisib] (top concentration 10000 nM),7.08,5.28,5.38
CCS(=O)(=O)N1CCN(c2ccc(Nc3ncc(C(N)=O)c(NC4CC4)n3)cc2)CC1 [Cerdulatinib] (top concentration 10000 nM),2.54,-2.36,-5.16
CC(C)[C@H]1C(=O)N[C@@H](CCCNC(=N)N)C(=O)NCC(=O)N[C@@H](CC(=O)O)C(=O)N[C@H](Cc2ccccc2)C(=O)N1C [Cilengitide] (top concentration 10000 nM),0,0,0
CC(C)(C)c1nc(-c2cccc(NS(=O)(=O)c3c(F)cccc3F)c2F)c(-c2ccnc(N)n2)s1 [Dabrafenib] (top concentration 2500 nM),-1.52,2.18,0.38
C[C@H]1O[C@@H](O[C@H]2[C@@H](O)C[C@H](O[C@H]3[C@@H](O)C[C@H](O[C@H]4CC[C@@]5(C)[C@H](CC[C@@H]6[C@@H]5C[C@@H](O)[C@]5(C)[C@@H](C7=CC(=O)OC7)CC[C@]65O)C4)O[C@@H]3C)O[C@@H]2C)C[C@H](O)[C@@H]1O [Digoxin] (top concentration 1000 nM),10,12.3,11.1
C[C@H](Nc1ncnc2nc[nH]c12)c1cc2cccc(Cl)c2c(=O)n1-c1ccccc1 [Duvelisib] (top concentration 500 nM),-0.54,-0.44,-0.94
NC(=O)/C(=C/n1cnc(-c2cc(C(F)(F)F)cc(C(F)(F)F)c2)n1)c1cncnc1 [Eltanexor] (top concentration 10000 nM),3.96,8.96,8.36
COC(=O)N[C@@H](C)CNc1nccc(-c2cn(C(C)C)nc2-c2cc(Cl)cc(NS(C)(=O)=O)c2F)n1 [Encorafenib] (top concentration 1000 nM),0.1,2.6,1.5
Nc1ccccc1NC(=O)c1ccc(CNC(=O)OCc2cccnc2)cc1 [Entinostat] (top concentration 10000 nM),12.9,9.48,2.08
C#Cc1cccc(Nc2ncnc3cc(OCCOC)c(OCCOC)cc23)c1 [Erlotinib] (top concentration 10000 nM),1.86,2.86,0.46
O=C(Nc1nc2cccc(-c3ccc(CN4CCS(=O)(=O)CC4)cc3)n2n1)C1CC1 [Filgotinib] (top concentration 10000 nM),1.96,-1.04,-2.24
C[C@H]1C=C2C(=O)O[C@H]3CC[C@@H](C1)[C@@]23O [Galiellalactone] (top concentration 25000 nM),3.56,5.16,4.16
CN(C)C1CCN(C(=O)c2ccc(NC(=O)Nc3ccc(-c4nc(N5CCOCC5)nc(N5CCOCC5)n4)cc3)cc2)CC1 [Gedatolisib] (top concentration 1000 nM),1.16,3.76,5.06
Nc1ccn([C@@H]2O[C@H](CO)[C@@H](O)C2(F)F)c(=O)n1 [Gemcitabine] (top concentration 1000 nM),24.9,-7.44,13.5

# Source: the supplement of paper PMC8967900
